Laboratory results: patent publication US5922683A, “Multicyclic erythromycin derivatives” (Abbott Laboratories, priority 1998, dated 1999)

How the values were obtained:
ESCHERICHIA COLI DC-2 = test: In vitro antibacterial activity (agar dilution MIC); assay type: cell-based; conditions: BHI agar, 35-37° C., 20 to 24 hours
Protocol: (§1) Representative compounds of the present invention were assayed in vitro for antibacterial activity as follows: Twelve petri dishes containing successive aqueous dilutions of the test compound mixed with 10 mL of sterilized Brain Heart Infusion (BHI) agar (Difco 0418-01-5) were prepared. Each plate was inoculated with 1:100 (or 1:10 for slow-growing strains, such as Micrococcus and Streptococcus) dilutions of up to 32 different microorganisms, using a Steers replicator block. The inoculated plates were incubated at 35-37° C. for 20 to 24 hours. In addition, a control plate, using BHI agar containing no test compound, was prepared and incubated at the beginning and end of each test.
(§2) An additional plate containing a compound having known susceptibility patterns for the organisms being tested and belonging to the same antibiotic class as the test compound was also prepared and incubated as a further control, as well as to provide test-to-test comparability. Erythromycin A was used for this purpose.
(§3) After incubation, each plate was visually inspected. The minimum inhibitory concentration (MIC) was defined as the lowest concentration of drug yielding no growth, a slight haze, or sparsely isolated colonies on the inoculum spot as compared to the growth control.

ESCHERICHIA COLI JUHL = test: as above; assay type: cell-based; conditions: BHI agar, 35-37° C., 20 to 24 hours
Protocol: as §1, §2, §3

[1] = test system: STAPHYLOCOCCUS AUREUS A5177; test: as above; assay type: cell-based; conditions: BHI agar, 35-37° C., 20 to 24 hours
Protocol: as §1, §2, §3

ESCHERICHA COLI SS = test: as above; assay type: cell-based; conditions: BHI agar, 35-37° C., 20 to 24 hours
Protocol: as §1, §2, §3

[2] = test system: STAPHYLOCOCCUS AUREUS 1775; test: as above; assay type: cell-based; conditions: BHI agar, 35-37° C., 20 to 24 hours
Protocol: as §1, §2, §3

[3] = test system: STAPHYLOCOCCUS AUREUS A-5278; test: as above; assay type: cell-based; conditions: BHI agar, 35-37° C., 20 to 24 hours
Protocol: as §1, §2, §3

STR[…] 930 = test: as above; assay type: cell-based; conditions: BHI agar, 35-37° C., 20 to 24 hours
Protocol: as §1, §2, §3

[4] = test system: STREPTOCOCCUS PYOGENES EES61; test: as above; assay type: cell-based; conditions: BHI agar, 35-37° C., 20 to 24 hours
Protocol: as §1, §2, §3

[5] = test system: STREPTOCOCCUS BOVIS A-5169; test: as above; assay type: cell-based; conditions: BHI agar, 35-37° C., 20 to 24 hours
Protocol: as §1, §2, §3

STR[…] PIU 2548 = test: as above; assay type: cell-based; conditions: BHI agar, 35-37° C., 20 to 24 hours
Protocol: as §1, §2, §3

[6] = test system: STAPHYLOCOCCUS AUREUS ATCC 6538P; test: as above; assay type: cell-based; conditions: BHI agar, 35-37° C., 20 to 24 hours
Protocol: as §1, §2, §3

CANDIDA ALBICANS CCH 442 = test: In vitro antimicrobial activity (agar dilution MIC); assay type: cell-based; conditions: BHI agar, 35-37° C., 20 to 24 hours
Protocol: as §1, §2, §3

Gram-negative bacteria = conditions: cited from earlier work
[7] = test system: STAPHYLOCOCCUS AUREUS NCTC10649M; test: In vitro antibacterial activity (agar dilution MIC); assay type: cell-based; conditions: BHI agar, 35-37° C., 20 to 24 hours
Protocol: as §1, §2, §3

N. ASTEROIDES ATCC 9970 = test: as above; assay type: cell-based; conditions: BHI agar, 35-37° C., 20 to 24 hours
Protocol: as §1, §2, §3

[8] = test system: STAPHYLOCOCCUS AUREUS CMX 642A; test: as above; assay type: cell-based; conditions: BHI agar, 35-37° C., 20 to 24 hours
Protocol: as §1, §2, §3

[9] = test system: STAPHYLOCOCCUS EPIDERMIDIS 3519; test: as above; assay type: cell-based; conditions: BHI agar, 35-37° C., 20 to 24 hours
Protocol: as §1, §2, §3

[10] = test system: MYCOBACTERIUM SMEGMATIS ATCC 114; test: as above; assay type: cell-based; conditions: BHI agar, 35-37° C., 20 to 24 hours
Protocol: as §1, §2, §3

[11] = test system: STAPHYLOCOCCUS AUREUS CMX 553; test: as above; assay type: cell-based; conditions: BHI agar, 35-37° C., 20 to 24 hours
Protocol: as §1, §2, §3

Structure (SMILES)	minimum inhibitory concentration (MIC) (ESCHERICHIA COLI DC-2)	minimum inhibitory concentration (MIC) (ESCHERICHIA COLI JUHL)	minimum inhibitory concentration (MIC) [1]	minimum inhibitory concentration (MIC) (ESCHERICHA COLI SS)	minimum inhibitory concentration (MIC) [2]	minimum inhibitory concentration (MIC) [3]	minimum inhibitory concentration (MIC) (STR[…] 930)	minimum inhibitory concentration (MIC) [4]	minimum inhibitory concentration (MIC) [5]	minimum inhibitory concentration (MIC) (STR[…] PIU 2548)	minimum inhibitory concentration (MIC) [6]	minimum inhibitory concentration (MIC) (CANDIDA ALBICANS CCH 442)	activity against Gram-negative bacteria (Gram-negative bacteria)	minimum inhibitory concentration (MIC) [7]	minimum inhibitory concentration (MIC) (N. ASTEROIDES ATCC 9970)	minimum inhibitory concentration (MIC) [8]	minimum inhibitory concentration (MIC) [9]	minimum inhibitory concentration (MIC) [10]	minimum inhibitory concentration (MIC) [11]
CC[C@H]1OC(=O)[C@H](C)C(=O)[C@H](C)[C@@H](O[C@@H]2O[C@H](C)C[C@H](N(C)C)[C@H]2O)[C@](C)(OC)C[C@@H](C)C2Nc3ccccc3N3C(=O)O[C@@]1(C)[C@H]3[C@H]2C (single isomer, unassigned) [Ex 3]	> 100	> 100	25	100	> 100	> 100	> 100	3.1	1.56	25	25	> 100	–	–	–	–	–	–	–
CC[C@H]1OC(=O)[C@H](C)[C@@H](O[C@H]2C[C@@](C)(OC)[C@@H](O)[C@H](C)O2)[C@H](C)[C@@H](O[C@@H]2O[C@H](C)C[C@H](N(C)C)[C@H]2O)[C@](C)(O)C[C@@H](C)C(=O)[C@H](C)[C@@H](O)[C@]1(C)O [Ery A, Erythromycin A]	–	–	–	–	–	–	–	–	–	–	–	–	only weak activity	–	–	–	–	–	–
CC[C@H]1OC(=O)[C@H](C)C(=O)[C@H](C)[C@@H](O[C@@H]2O[C@H](C)C[C@H](N(C)C)[C@H]2O)[C@](C)(OC)C[C@@H](C)C2=Nc3ccccc3N3C(=O)O[C@@]1(C)[C@H]3[C@H]2C [Ex 2]	> 100	> 100	0.39	1.56	> 100	> 100	> 100	0.1	0.1	0.39	0.39	> 100	–	0.39	0.39	0.39	0.39	3.1	0.39
CC[C@H]1OC(=O)[C@H](C)C(=O)[C@H](C)[C@@H](O[C@@H]2O[C@H](C)C[C@H](N(C)C)[C@H]2O)[C@](C)(OC)C[C@@H](C)C2=Nc3cc(C)ccc3N3C(=O)O[C@@]1(C)[C@H]3[C@H]2C [Ex 4]	> 100	> 100	0.78	0.2	–	> 100	> 100	–	–	0.2	0.78	> 100	–	0.78	0.1	0.78	–	100	–
CC[C@H]1OC(=O)[C@H](C)C(=O)[C@H](C)[C@@H](O[C@@H]2O[C@H](C)C[C@H](N(C)C)[C@H]2O)[C@](C)(OC)C[C@@H](C)C2=Nc3cc(OC)ccc3N3C(=O)O[C@@]1(C)[C@H]3[C@H]2C [Ex 5]	> 100	> 100	0.78	50	> 100	> 100	> 100	0.02	0.02	0.39	0.78	> 100	–	0.78	0.2	0.78	0.78	1.56	0.78
CC[C@H]1OC(=O)[C@H](C)C(=O)[C@H](C)[C@@H](O[C@@H]2O[C@H](C)C[C@H](N(C)C)[C@H]2O)[C@](C)(OC)C[C@@H](C)C2=Nc3cc(C#N)ccc3N3C(=O)O[C@@]1(C)[C@H]3[C@H]2C [Ex 6]	> 100	> 100	–	3.1	> 100	> 100	> 100	–	–	0.39	0.39	> 100	–	0.39	0.39	0.39	0.2	0.1	0.39
CC[C@H]1OC(=O)[C@H](C)C(=O)[C@H](C)[C@@H](O[C@@H]2O[C@H](C)C[C@H](N(C)C)[C@H]2O)[C@](C)(OC)C[C@@H](C)C2=Nc3cccnc3N3C(=O)O[C@@]1(C)[C@H]3[C@H]2C [Ex 7]	> 100	> 100	0.39	0.78	> 100	> 100	> 100	0.05	0.05	0.39	0.39	> 100	–	0.39	0.1	0.39	0.39	3.1	0.39
C=CCO[C@]1(C)C[C@@H](C)C2=Nc3ccccc3N3C(=O)O[C@](C)([C@@H](CC)OC(=O)[C@H](C)C(=O)[C@H](C)[C@H]1O[C@@H]1O[C@H](C)C[C@H](N(C)C)[C@H]1O)[C@H]3[C@H]2C [Ex 8]	> 100	> 100	0.78	12.5	> 100	> 100	> 100	0.39	0.1	0.78	0.78	> 100	–	0.78	3.1	0.78	–	–	0.78
